Laboratory results: patent US9920059B2, “Heterocyclic compounds as pesticides” (BAYER CROPSCIENCE AKTIENGESELLSCHAFT, priority 2014, dated 2018)
Where two headings read alike, the source gives them in different places.

What was measured:
[1] = log P by HPLC on reversed-phase C18 columns, OECD Guideline 117; format: physicochemical; conditions: for logP [a]: pH 2.7; for logP [b]: pH 7.8; for chromatographic logP: reversed-phase C18 HPLC column
Experimental: The log P values were determined in accordance with OECD Guideline 117 (EC Directive 92/69/EEC) by HPLC (high-performance liquid chromatography) using reversed-phase (RP) columns (C18), by the following methods: [a] The LC-MS determination in the acidic range is effected at pH 2.7 with 0.1% aqueous formic acid and acetonitrile (contains 0.1% formic acid) as eluents; linear gradient from 10% acetonitrile to 95% acetonitrile. [b] LC-MS determination in the neutral range is effected at pH 7.8 with 0.001 molar aqueous ammonium hydrogencarbonate solution and acetonitrile as eluents; linear gradient from 10% acetonitrile to 95% acetonitrile. Calibration is effected with unbranched alkan-2-ones (having 3 to 16 carbon atoms) with known log P values (log P values determined on the basis of the retention times by linear interpolation between two successive alkanones).

[2] = test system: green peach aphid (Myzus persicae); experiment: Myzus persicae spray test (MYZUPE), Chinese cabbage leaf discs; format: in vivo; conditions: after 6 days
Experimental: Myzus persicae—Spray Test (MYZUPE)
• Solvent: 78 parts by weight of acetone • 1.5 parts by weight of dimethylformamide • Emulsifier: alkylaryl polyglycol ether
(§1) To produce an appropriate active ingredient preparation, 1 part by weight of active ingredient is dissolved using the specified parts by weight of solvent and made up with water containing an emulsifier concentration of 1000 ppm until the desired concentration is attained. To produce further test concentrations, the preparation is diluted with emulsifier-containing water.
Discs of Chinese cabbage leaves (Brassica pekinensis) infested with all stages of the green peach aphid (Myzus persicae) are sprayed with an active ingredient preparation of the desired concentration.
After 6 days, the efficacy in % is determined. 100% means that all the aphids have been killed; 0% means that none of the aphids have been killed.

[3] = test system: greenhouse red spider mite (Tetranychus urticae); experiment: Tetranychus urticae spray test, OP-resistant (TETRUR), bean leaf discs; format: in vivo; conditions: application rate 500 g/ha, after 6 days
Experimental: Tetranychus urticae—Spray Test, OP-Resistant (TETRUR)
• Solvent: 78.0 parts by weight of acetone • 1.5 parts by weight of dimethylformamide • Emulsifier: alkylaryl polyglycol ether
as §1
Discs of bean leaves (Phaseolus vulgaris) infested with all stages of the greenhouse red spider mite (Tetranychus urticae) are sprayed with an active compound preparation of the desired concentration.
After 6 days, the efficacy in % is determined. 100% means that all the spider mites have been killed; 0% means that none of the spider mites have been killed.

[4] = test system: green peach aphid (Myzus persicae); experiment: Myzus persicae spray test (MYZUPE), bell pepper plants; format: in vivo; conditions: after 6 days
Experimental: Myzus Persicae—Spray Test (MYZUPE) • Solvent: 7 parts by weight of dimethylformamide • Emulsifier: alkylaryl polyglycol ether To produce an appropriate active ingredient preparation, 1 part by weight of active ingredient is dissolved using the specified parts by weight of solvent and made up with water containing an emulsifier concentration of 1000 ppm until the desired concentration is attained. To produce further test concentrations, the preparation is diluted with emulsifier-containing water. If the addition of ammonium salts or/and penetrants is required, these are each added in a concentration of 1000 ppm to the preparation solution. Bell pepper plants (Capsicum annuum) severely infested with the green peach aphid (Myzus persicae) are treated by spraying with the active ingredient preparation in the desired concentration. After 6 days, the kill in % is determined. 100% means that all the aphids have been killed; 0% means that no aphids have been killed.

[5] = test system: adult houseflies (Musca domestica); experiment: Musca domestica test (MUSCDO); format: in vivo; conditions: application rate 100 ppm, after 2 days
Experimental: Musca domestica Test (MUSCDO) • Solvent: dimethyl sulphoxide To prepare an appropriate active ingredient preparation, 10 mg of active ingredient are mixed with 0.5 ml of dimethyl sulphoxide, and the concentrate is diluted with water to the desired concentration. Vessels containing a sponge treated with sugar solution and the active ingredient preparation of the desired concentration are populated with 10 adult houseflies (Musca domestica). After 2 days, the kill in % is determined. 100% means that all of the flies have been killed; 0% means that none of the flies have been killed.

[6] = acidic range, NMR peak list table
[7] = neutral range, NMR peak list table
[8] = acidic range, pH 2.7, 0.1% aqueous formic acid/acetonitrile, read-out: log P[a]
[9] = neutral range, pH 7.8, ammonium hydrogencarbonate/acetonitrile, read-out: log P[b]

Row | logP [a] [1, 6] | logP [b] [1, 7] | Structure (SMILES) | efficacy in % ([2]; application rate 500 g/ha) [%] | also measured
1 | 2.25 | 2.18 | O=c1c2cn(-c3cccnc3)nc2ncn1-c1cccc(SCC(F)(F)F)c1 [I-1-12] | 90 | 
2 |  |  | Cc1cc(F)c(-n2cnc3nn(-c4ccc[n+]([O-])c4)cc3c2=O)cc1[S+]([O-])CC(F)(F)F (stereo not drawn) [I-1-5, 5-{2-Fluoro-4-methyl-5-[(2,2,2-trifluoroethyl)sulphinyl]phenyl}-2-(1-oxidopyridin-1-ium-3-yl)pyrazolo[3,4-d]pyrimidin-4-one] | 100 | chromatographic logP [1, 8]: 1.39; chromatographic logP [1, 9]: 1.33
3 |  |  | Cc1ccc(-n2cnc3nn(-c4cccnc4)cc3c2=O)cc1SCC(F)(F)F [I-1-7] | 90 | logP [a] ([1]; acidic range, Table 2): 2.51; logP [b] ([1]; neutral range, Table 2): 2.56
4 | 1.27 | 1.32 | O=c1c2cn(-c3cccnc3)nc2ncn1-c1cccc([S+]([O-])CC2CC2)c1 (stereo not drawn) [I-1-21] | 90 | 
5 | 2.75 | 2.72 | Cc1cc(C)c(-n2cnc3nn(-c4cccnc4)cc3c2=O)cc1SCC(F)(F)F [I-1-17] | 90 | 
6 |  |  | Cc1cc(F)c(-n2cnc3nn(-c4cccnc4)cc3c2=O)cc1[S+]([O-])CC(F)(F)F (stereo not drawn) [I-1-4, 5-{2-Fluoro-4-methyl-5-[(2,2,2-trifluoroethyl)sulphinyl]phenyl}-2-(pyridin-3-yl)-2,5-dihydro-4H-pyrazolo[3,4-d]pyrimidin-4-one] | 100 | chromatographic logP [1, 8]: 1.79; chromatographic logP [1, 9]: 1.78; efficacy in % [3]: 100%
7 | 2.91 | 2.83 | O=c1c2cn(-c3cccnc3)nc2ncn1-c1cc(SCC(F)(F)F)c(Cl)cc1Cl [I-1-14] | 90 | 
8 |  |  | Cc1cc(F)c(NC(=O)c2cn(-c3cccnc3)nc2N)cc1SCC(F)(F)F [II-1, 3-Amino-N-{2-fluoro-4-methyl-5-[(2,2,2-trifluoroethyl)sulphanyl]phenyl}-1-(pyridin-3-yl)-1H-pyrazole-4-carboxamide] |  | chromatographic logP [1, 8]: 2.72; chromatographic logP [1, 9]: 2.63
9 |  |  | O=c1c2cn(-c3cccnc3)nc2ncn1-c1cc([S+]([O-])CC(F)(F)F)ccc1F (stereo not drawn) [I-1-10] | 100 | logP [a] ([1]; acidic range, Table 2): 1.53; logP [b] ([1]; neutral range, Table 2): 1.55
10 |  |  | Cc1cc(F)c(-n2cnc3nn(-c4cccnc4)cc3c2=O)cc1SCC(F)(F)F [I-1-1, 5-{2-Fluoro-4-methyl-5-[(2,2,2-trifluoroethyl)sulphanyl]phenyl}-2-(pyridin-3-yl)-2,5-dihydro-4H-pyrazolo[3,4-d]pyrimidin-4-one] |  | chromatographic logP [1, 8]: 2.65; chromatographic logP [1, 9]: 2.63; efficacy (kill in %) ([4]; application rate 20 ppm): 100%
11 | 1.65 | 1.67 | CSc1ccccc1-n1cnc2nn(-c3cccnc3)cc2c1=O [I-2-23] | 90 | 
12 | 1.46 | 1.41 | O=c1c2cn(-c3cccnc3)nc2ncn1-c1cccc([S+]([O-])CC(F)(F)F)c1 (stereo not drawn) [I-1-16] | 90 | 
13 | 2.02 | 1.94 | O=c1c2cn(-c3cccnc3)nc2ncn1-c1cc([S+]([O-])CC(F)(F)F)c(Cl)cc1F (stereo not drawn) [I-1-18] | 90 | 
14 |  |  | Cc1cc(F)c(-n2nnc3nn(-c4cccnc4)cc3c2=O)cc1[S+]([O-])CC(F)(F)F (stereo not drawn) [I-1-2, 3-[2-Fluoro-4-methyl-5-(2,2,2-trifluoroethylsulphinyl)phenyl]-6-(3-pyridyl)pyrazolo[3,4-d]triazin-4-one] | 100 | chromatographic logP [1, 8]: 2.22; chromatographic logP [1, 9]: 2.19; efficacy (kill in %) [5]: 80%
15 |  |  | Cc1ccc(-n2cnc3nn(-c4cccnc4)cc3c2=O)cc1[S+]([O-])CC(F)(F)F (stereo not drawn) [I-1-8] | 90 | logP [a] ([1]; acidic range, Table 2): 1.65; logP [b] ([1]; neutral range, Table 2): 1.67
16 |  |  | CSc1cccc(-n2cnc3nn(-c4cccnc4)cc3c2=O)c1 [I-1-6] | 90 | logP [a] ([1]; acidic range, Table 2): 1.82; logP [b] ([1]; neutral range, Table 2): 1.78
17 |  |  | O=c1c2cn(-c3cccnc3)nc2ncn1-c1cc(SCC(F)(F)F)ccc1F [I-1-9] |  | logP [a] ([1]; acidic range, Table 2): 2.32; logP [b] ([1]; neutral range, Table 2): 2.35; efficacy in % ([2]; application rate 100 g/ha): 90%
18 | 2.74 | 2.69 | Cc1cc(F)c(-n2c(C)nc3nn(-c4cccnc4)cc3c2=O)cc1SCC(F)(F)F [I-1-22] | 90 | 
19 | 1.66 | 1.67 | O=c1c2cn(-c3ccc[n+]([O-])c3)nc2ncn1-c1cc([S+]([O-])CC(F)(F)F)c(Cl)cc1Cl (stereo not drawn) [I-1-15] | 90 | 
20 | 2.17 | 2.09 | O=c1c2cn(-c3cccnc3)nc2ncn1-c1cc([S+]([O-])CC(F)(F)F)c(Cl)cc1Cl (stereo not drawn) [I-1-19] | 90 | 
21 | 2.50 | 2.41 | O=c1c2cn(-c3cccnc3)nc2ncn1-c1cccc(SCC2CC2)c1 [I-1-11] | 100 | 
22 | 2.70 | 2.65 | O=c1c2cn(-c3cccnc3)nc2ncn1-c1cc(SCC(F)(F)F)c(Cl)cc1F [I-1-13] |  | efficacy (kill in %) ([4]; application rate 4 ppm): 100%
23 |  |  | Cc1cc(F)c(-n2nnc3nn(-c4cccnc4)cc3c2=O)cc1SCC(F)(F)F [I-1-3, 3-[2-fluoro-4-methyl-5-(2,2,2-trifluoroethylsulphanyl)phenyl]-6-(3-pyridyl)pyrazolo[3,4-d]triazin-4-one] | 100 | chromatographic logP [1, 8]: 3.18; chromatographic logP [1, 9]: 3.14; efficacy (kill in %) [5]: 80%

Row | Structure (SMILES) | logP [a] [1, 6] | logP [b] [1, 7] | efficacy in % ([2]; application rate 500 g/ha) [%] | also measured
24 | Cc1cc(C)c([S+]([O-])CC(F)(F)F)cc1-n1cnc2nn(-c3cccnc3)cc2c1=O (stereo not drawn) [I-1-20] | 1.84 | 1.79 |  | efficacy in % ([2]; application rate 20 g/ha): 90%; efficacy in % [3]: 90%
